According to PMC5488175, “A New Methodology for Incorporating Chiral Linkers into Stapled Peptides” (Chembiochem, 2017):

Assays:
[1] = Circular dichroism helicity; type: physicochemical; settings: CD, MRE222 vs theoretical maximum; PBS (50 mM)/acetonitrile 95:5, pH 7.4, 20 °C; average of three scans
Description: Each purified peptide was dissolved in phosphate buffer (PBS; 50 mM)/acetonitrile (95:5, pH 7.4) and its circular dichroism spectrum was recorded.
Circular dichroism: CD spectra were obtained on a Chirascan CD spectrometer at 20 °C (1 mm path length, 260–190 nm, bandwidth 1.0 nm, response time 0.5 s, step resolution 1.0 nm) Each spectrum is the average of three scans. Peptides were dissolved in PBS (50 mM)/acetonitrile (95:5, pH 7.4) at 20 °C. The helicity was calculated as previously reported19b by comparing mean residue ellipticity at 222 nm (MRE222) to the theoretical maximum as calculated from the formula [Eq. (1), n=number of amino acid residues] described by Forood et al.21 (1) MRE222=-40000×(1-2.5/n)
Spectra were obtained at several concentrations ([…]).

α-chymotrypsin = test: Serum stability assay: incubation with α‐chymotrypsin; type: in vitro ADME; settings: α-chymotrypsin (0.5 μg/mL) in PBS, α-chymotrypsin 0.5 μg mL−1 in PBS, peptide 0.3 mM from DMSO stock, RT, HPLC 220 nm vs caffeine internal standard, duplicate, read-out: peptide remaining intact after 6 h of incubation with α‐chymotrypsin
Description: Serum stability assay: Each peptide was dissolved in PBS (300 μL) from a DMSO stock to a final concentration of 0.3 mM. This PBS contained α‐chymotrypsin (0.5 μg mL^−1) and caffeine as an internal standard. Peptides were incubated at RT, and at each time point, an aliquot (30 μL) of the mixture was removed, snap frozen, thawed and centrifuged, and the supernatant was analysed by HPLC. Peptide degradation was monitored by comparing the integration of the peptide peak against the internal standard at […]. Experiments were performed in duplicate.

SMILES | Helicity [1] [%] | remaining at 6 h, 0.3 mM (α-chymotrypsin) [%]
CC(=O)N[C@@H](CCC(=O)O)C(=O)N[C@H](C(=O)N[C@@H](Cc1ccccc1)C(=O)N[C@@]1(C)CCCC=CCCC[C@@H](OC(=O)[C@@H](N)CCCCN)c2cn(nn2)CC[C@@H](C(=O)N[C@@H](CCC(=O)O)C(=O)N[C@@H](CC(N)=O)C(N)=O)NC(=O)[C@H](CC(C)C)NC(=O)[C@H](CC(C)C)NC(=O)[C@H](CCCNC(=N)N)NC(=O)[C@H](Cc2c[nH]c3ccccc23)NC(=O)[C@H](CC(C)C)NC(=O)[C@H](CC(=O)O)NC1=O)[C@@H](C)O [SP2 (B)] | 35 | –
C=CCCC[C@](C)(NC(=O)[C@H](Cc1ccccc1)NC(=O)[C@@H](NC(=O)[C@H](CCC(=O)O)NC(C)=O)[C@@H](C)O)C(=O)N[C@@H](CC(=O)O)C(=O)N[C@@H](CC(C)C)C(=O)N[C@@H](Cc1c[nH]c2ccccc12)C(=O)N[C@@H](CCCNC(=N)N)C(=O)N[C@@H](CC(C)C)C(=O)N[C@@H](CC(C)C)C(=O)N[C@@H](CCN=[N+]=[N-])C(=O)N[C@@H](CCC(=O)O)C(=O)N[C@@H](CC(N)=O)C(N)=O [SP0] | 52 | 17
CC(=O)N[C@@H](CCC(=O)O)C(=O)N[C@H](C(=O)N[C@@H](Cc1ccccc1)C(=O)N[C@@]1(C)CCCC=CCCC[C@@H](OC(=O)[C@@H](N)CCCCN)c2cn(nn2)CC[C@@H](C(=O)N[C@@H](CCC(=O)O)C(=O)N[C@@H](CC(N)=O)C(N)=O)NC(=O)[C@H](CC(C)C)NC(=O)[C@H](CC(C)C)NC(=O)[C@H](CCCNC(=N)N)NC(=O)[C@H](Cc2c[nH]c3ccccc23)NC(=O)[C@H](CC(C)C)NC(=O)[C@H](CC(=O)O)NC1=O)[C@@H](C)O [SP2 (A)] | 67 | –
CC(=O)N[C@@H](CCC(=O)O)C(=O)N[C@H](C(=O)N[C@@H](Cc1ccccc1)C(=O)N[C@@]1(C)CCCC=CCCC[C@H](OC(=O)[C@@H](N)CCCCN)c2cn(nn2)CC[C@@H](C(=O)N[C@@H](CCC(=O)O)C(=O)N[C@@H](CC(N)=O)C(N)=O)NC(=O)[C@H](CC(C)C)NC(=O)[C@H](CC(C)C)NC(=O)[C@H](CCCNC(=N)N)NC(=O)[C@H](Cc2c[nH]c3ccccc23)NC(=O)[C@H](CC(C)C)NC(=O)[C@H](CC(=O)O)NC1=O)[C@@H](C)O [SP1 (A)] | 53 | 82

The next lines start with the values.

Helicity [1] [%] | remaining at 6 h, 0.3 mM (α-chymotrypsin) [%] | SMILES
55 | – | CC(=O)N[C@@H](CCC(=O)O)C(=O)N[C@H](C(=O)N[C@@H](Cc1ccccc1)C(=O)N[C@@]1(C)CCCC=CCCC[C@H](OC(=O)[C@H](CCCCN)NC(=O)[C@@H](N)CCCCN)c2cn(nn2)CC[C@@H](C(=O)N[C@@H](CCC(=O)O)C(=O)N[C@@H](CC(N)=O)C(N)=O)NC(=O)[C@H](CC(C)C)NC(=O)[C@H](CC(C)C)NC(=O)[C@H](CCCNC(=N)N)NC(=O)[C@H](Cc2c[nH]c3ccccc23)NC(=O)[C@H](CC(C)C)NC(=O)[C@H](CC(=O)O)NC1=O)[C@@H](C)O [SP1‐K (A)]
31 | – | CC(=O)N[C@@H](CCC(=O)O)C(=O)N[C@H](C(=O)N[C@@H](Cc1ccccc1)C(=O)N[C@@]1(C)CCCC=CCCC[C@H](OC(=O)[C@H](CCCCN)NC(=O)[C@@H](N)CCCCN)c2cn(nn2)CC[C@@H](C(=O)N[C@@H](CCC(=O)O)C(=O)N[C@@H](CC(N)=O)C(N)=O)NC(=O)[C@H](CC(C)C)NC(=O)[C@H](CC(C)C)NC(=O)[C@H](CCCNC(=N)N)NC(=O)[C@H](Cc2c[nH]c3ccccc23)NC(=O)[C@H](CC(C)C)NC(=O)[C@H](CC(=O)O)NC1=O)[C@@H](C)O [SP1‐K (B)]
65 | – | CC(=O)N[C@@H](CCC(=O)O)C(=O)N[C@H](C(=O)N[C@@H](Cc1ccccc1)C(=O)N[C@@]1(C)CCCC=CCCC[C@@H](OC(=O)[C@H](CCCCN)NC(=O)[C@@H](N)CCCCN)c2cn(nn2)CC[C@@H](C(=O)N[C@@H](CCC(=O)O)C(=O)N[C@@H](CC(N)=O)C(N)=O)NC(=O)[C@H](CC(C)C)NC(=O)[C@H](CC(C)C)NC(=O)[C@H](CCCNC(=N)N)NC(=O)[C@H](Cc2c[nH]c3ccccc23)NC(=O)[C@H](CC(C)C)NC(=O)[C@H](CC(=O)O)NC1=O)[C@@H](C)O [SP2‐K (A)]
36 | – | CC(=O)N[C@@H](CCC(=O)O)C(=O)N[C@H](C(=O)N[C@@H](Cc1ccccc1)C(=O)N[C@@]1(C)CCCC=CCCC[C@@H](OC(=O)[C@H](CCCCN)NC(=O)[C@@H](N)CCCCN)c2cn(nn2)CC[C@@H](C(=O)N[C@@H](CCC(=O)O)C(=O)N[C@@H](CC(N)=O)C(N)=O)NC(=O)[C@H](CC(C)C)NC(=O)[C@H](CC(C)C)NC(=O)[C@H](CCCNC(=N)N)NC(=O)[C@H](Cc2c[nH]c3ccccc23)NC(=O)[C@H](CC(C)C)NC(=O)[C@H](CC(=O)O)NC1=O)[C@@H](C)O [SP2‐K (B)]
31 | – | CC(=O)N[C@@H](CCC(=O)O)C(=O)N[C@H](C(=O)N[C@@H](Cc1ccccc1)C(=O)N[C@@]1(C)CCCC=CCCC[C@H](OC(=O)[C@@H](N)CCCCN)c2cn(nn2)CC[C@@H](C(=O)N[C@@H](CCC(=O)O)C(=O)N[C@@H](CC(N)=O)C(N)=O)NC(=O)[C@H](CC(C)C)NC(=O)[C@H](CC(C)C)NC(=O)[C@H](CCCNC(=N)N)NC(=O)[C@H](Cc2c[nH]c3ccccc23)NC(=O)[C@H](CC(C)C)NC(=O)[C@H](CC(=O)O)NC1=O)[C@@H](C)O [SP1 (B)]
